Measured values published in patent US20230286995A1, “METABOLICALLY STABLE PYRIMIDINYL DIHYDROQUINOXALINONES AS TUBULIN POLYMERIZATION INHIBITORS” (UNIVERSITY OF TENNESSEE RESEARCH FOUNDATION, priority 2022, published 2023).
Like-named read-outs stand apart in the source and are kept apart here.

What was measured:
[1] = system: A549; assay: cells; conditions: Homo sapiens, A549, read-out: IC50 ± SEM (nM) A549
Experimental: (§1) M14 and M14 multidrug-resistant daughter line M14/LCC6MDR1 were gifts from Dr. Robert Clarke from Georgetown University. Melanoma cells and breast cancer cells were cultured in Dulbecco's modified Eagle's medium (DMEM) (Corning, Manassas, Va.) supplemented with 10% fetal bovine serum (FBS, Atlanta Biologicals, Lawrenceville, Ga.) and 1% antibiotic/antimycotic solution (Sigma-Aldrich, St. Louis, Mo.). […] Taxanes were removed from the media a week before the actual experiment. […] For biological studies, dihydroquinoxalinone pyrimidine analogues were prepared in DMSO (ATCC) at a stock concentration of 20 mM and stored in −20° C. in refrigerator. Prior to experiments, stocks were diluted with the proper culture medium.
(§2) Depending on their growth rate, cancer cells were seeded at a concentration of 3,500-5,000 cells per well in 96-well plate. On next day, the culture medium was replaced with the fresh medium containing the test compounds at concentrations ranging from 0.1 nM to 3 μM in four replicates. […] Absorbance was recorded at 490 nm using a microplate reader (BioTek Instruments Inc., Winooski, Vt.). IC50 values were calculated by GraphPad Prism software (San Diego, Calif.).

[2] = system: A549/TxR; assay: cells; conditions: Homo sapiens, read-out: IC50 ± SEM (nM) A549/TxR
Experimental: as §1, §2

[3] = system: DU-145/VxR xenografts; parameters: species or system NSG mice; conditions: mouse, in vivo
Description: During the treatments, we monitored the tumor growth by measuring the tumor volume three times per week.

[4] = molecular target: T1, tubulin protein from bovine brain (Bos taurus, UniProt P81947+Q6B856); assay: Tubulin polymerization assay (FIG. 5A); type: biochemical; conditions: 10 μM, cell-free
T1 construct: tubulin protein from bovine brain origin; purchased Cytoskeleton, Denver, Colo; host or cells: bovine brain
Experimental: Tubulin polymerization reaction was initiated by adding 100 μL of tubulin protein from bovine brain origin (3 mg/ml, Cytoskeleton, Denver, Colo.) into 10 μM of test compounds in general tubulin buffer (80 mM PIPES, 2.0 mM MgCl2, 0.5 mM EGTA, and 1 mM GTP) according to the manufacturer protocol. The reaction kinetics were recorded in every thirty seconds for 1 h at 37° C. and a microplate reader equipped with absorbance settings at 340 nm wavelength was used for this purpose. The experiment was performed in duplicates.

[5] = system: Mia PaCa-2; assay: Colony formation assay (PDAC); type: cell-based, human; conditions: tested 1, 2.5, 5 nM
Experimental: Cells were seeded at 1000 cells per well in 6-well plates in triplicates and treated with vehicle control or 1-5 nmol/L test compounds for 11 to 14 days. The colonies were fixed with 100% methanol and stained with 0.5% crystal violet. Colony area was quantified with Image J software.

[6] = rats
Experimental: The compound was formulated in PEG300 (40%) and water (60%). […] Plasma was immediately separated by centrifugation (6,000×g for 10 min at 4° C.) and stored at −70° C. until analysis. For urinary excretion, urine was cumulatively collected after intravenous administration, the volume recorded, and a specimen stored at −70° C. until analysis.
Chromatographic separations were carried out on a Phenomenex C18, 2.6 μm, 100×4.6 mm column (Phenomenex, Torrance Calif.) using a Nexera XR liquid chromatograph (Shimadzu Corp., Columbia, Md.). […] The eluate was led directly into an API 4500 triple quadruple mass spectrometer (Applied Biosystem, Foster City, Calif.) equipped with a turbospray ion source, operated in the positive ion mode at a source temperature of 500° C. with a capillary voltage of 4500 kV. Nitrogen was used as the source gas, curtain gas, and collision gas.

[7] = system: A-253 and Detroit 562; assay: Cytotoxicity in head and neck cancer cell lines; type: cell-based; conditions: Homo sapiens; FIG. 39A; read-out: IC50 values, range over A-253 and Detroit 562
Experimental: A panel of dihydroquinoxalinones were tested in two head and neck cancer cell lines, A-253 and Detroit 562. A-253 cells are a human salivary epidermoid carcinoma cell line, whereas Detroit 562 is a head and neck squamous cell carcinoma (HNSCC). Oral cancer is the most common type of head and neck cancer and more than 90% of oral cancers are either oral or oropharyngeal squamous cell carcinoma (SCC). A major clinical dilemma is chemotherapy efficiency targeted for head and neck squamous cell carcinoma (HNSCC). The inability to successfully complete cancer treatment utilizing a standard surgical approach due to an advanced stage of HNSCC and/or resistance of SCC cells to conventional chemotherapy and/or radiotherapy leads to a continuous search for new compounds with cytostatic activity and minor side effects.
FIGS. 39B and 39C illustrate the graphical representation of the data. […] For example, at treatment levels as low of 0.5 nM, 12k was able to prevent head and neck cancer cell proliferation almost completely, whereas it required 5 nM of 17ya to achieve similar antiproliferation.

[8] = Microsomal stability assay; conditions: Table 3; liver microsomes; mean (% CV)
[9] = system: DU-145; assay: Cytotoxicity assay (MTS, 72 h); type: cell-based; conditions: Homo sapiens, DU-145, read-out: IC50 ± SEM (nM) DU-145; Table 2
Experimental: as §2

[10] = system: Mia PaCa-2; assay: Cytotoxicity assay (MTS, 72 h); type: cell-based; conditions: Homo sapiens, Table 6, read-out: IC50 (nM) Pancreatic cancer Mia PaCa-2
Experimental: Mia PaCa-2 and PANC-1 cells were seeded in 96-well plates at 4000 and 5000 cells per well, respectively.
Cytotoxicity Assay. Cancer cells were seeded at a concentration of 3,500-5,000 cells per well in a 96-well plate. […] Each experiment consisted of four replicates. […] A microplate reader was used to record the absorbance at 490 nm (BioTek Instruments Inc., Winooski, Vt.). IC50 values were calculated by GraphPad Prism software (San Diego, Calif.).

T1 sequence (P81947 whole entry): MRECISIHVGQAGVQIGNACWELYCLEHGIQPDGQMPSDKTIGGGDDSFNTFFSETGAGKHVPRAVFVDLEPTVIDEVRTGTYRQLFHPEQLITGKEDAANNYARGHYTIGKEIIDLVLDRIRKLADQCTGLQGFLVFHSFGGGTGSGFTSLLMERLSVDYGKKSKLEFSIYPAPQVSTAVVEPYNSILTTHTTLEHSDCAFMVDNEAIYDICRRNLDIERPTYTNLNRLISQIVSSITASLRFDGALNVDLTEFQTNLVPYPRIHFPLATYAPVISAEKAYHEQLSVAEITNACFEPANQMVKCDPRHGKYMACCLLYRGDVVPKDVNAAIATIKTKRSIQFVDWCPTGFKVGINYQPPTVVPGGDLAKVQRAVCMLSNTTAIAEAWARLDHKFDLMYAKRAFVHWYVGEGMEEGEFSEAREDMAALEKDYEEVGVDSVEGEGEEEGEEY
T1 sequence (Q6B856 whole entry): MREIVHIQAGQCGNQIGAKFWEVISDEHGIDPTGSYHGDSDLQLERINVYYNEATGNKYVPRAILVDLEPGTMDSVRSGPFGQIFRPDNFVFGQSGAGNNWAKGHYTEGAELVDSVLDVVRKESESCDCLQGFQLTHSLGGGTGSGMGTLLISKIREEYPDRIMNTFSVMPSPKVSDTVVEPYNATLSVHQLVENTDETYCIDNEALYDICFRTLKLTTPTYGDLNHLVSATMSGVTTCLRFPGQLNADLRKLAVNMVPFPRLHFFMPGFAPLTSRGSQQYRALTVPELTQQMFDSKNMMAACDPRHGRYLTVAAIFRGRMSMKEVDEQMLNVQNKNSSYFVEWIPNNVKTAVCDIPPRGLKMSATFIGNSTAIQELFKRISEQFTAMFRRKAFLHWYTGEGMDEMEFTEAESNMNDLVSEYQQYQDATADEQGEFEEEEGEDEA

Q: Which IC50 [1] does the source give for `COc1ccc2c(c1)NC(=O)CN2c1nc(C)nc2c1CCC2` [Compound 5m, 7-methoxy-4-(2-methyl-6,7-dihydro-5H-cyclopenta[d]pyrimidin-4-yl)-3,4-dihydroquinoxalin-2(1H)-one] here?
A: 4.5 ± 0.8 nM

Q: And the IC50 [2]?
A: 2.8 ± 1.1 nM

Q: What about the “endpoint average tumor volume” value [3] of the same compound?
A: ~80 mm^3

Q: And the “effect on microtubule polymerization” value [4]?
A: significantly inhibited microtubule polymerization

Q: What about the “dose at which colony formation was completely inhibited” value [5] of the same compound?
A: 1 nM

Q: And the “Clearance” value ([6]; Intravenous (2 mg/kg))?
A: 36.9 mL/min/kg

Q: And the “Cmax” value ([6]; Intravenous (2 mg/kg))?
A: 806 ng/mL

Q: And the “Volume of distribution” value ([6]; Intravenous (2 mg/kg))?
A: 23.7 L/kg

Q: And the “t1/2” value ([6]; Intravenous (2 mg/kg), terminal half-life)?
A: 14.7 h

Q: And the “Cumulative urinary excretion (%)” value ([6]; Intravenous (2 mg/kg), unchanged form)?
A: 0.00134%

Q: What about the “Bioavailability (%)” value ([6]; Oral (5 mg/kg)) of the same compound?
A: 3.2%

Q: What about the “Cmax” value ([6]; Oral (5 mg/kg)) of the same compound?
A: 34.7 ng/mL

Q: And the IC50 [7]?
A: 0.52 to 3.2 nM

Q: And the “Metabolic stability in human t1/2” value [8]?
A: 0.893 h

Q: What does the source list for `CCNc1nc2c(c(N3CC(=O)Nc4cc(OC)ccc43)n1)CCC2` [Compound 5v, 4-(2-(ethylamino)-6,7-dihydro-5H-cyclopenta[d]pyrimidin-4-yl)-7-methoxy-3,4-dihydroquinoxalin-2(1H)-one]?
A: IC50 [9]: 1.8 ± 0.3 nM; IC50 [10]: 3.4 ± 0.4 nM
